Results on three molecules are retold here after patent US20180079724A1, “SULFONIC ACID DERIVATIVE COMPOUND, PHOTOACID GENERATOR, RESIST COMPOSITION, CATIONIC POLYMERIZATION INITIATOR, AND CATIONICALLY POLYMERIZABLE COMPOSITION” (ADEKA CORPORATION, priority 2015, published 2018).

Type in all cases: physicochemical
Data set [1] in a line: Solubility to propylene glycol monomethyl ether acetate. As to conditions: propylene glycol monomethyl ether acetate at 25° C., 1%-by-mass increments. The method, then: (§1) The sulfonic acid derivative compound of Compound No. 4 and Comparative Compound 1 represented by the formula below were each dissolved in acetonitrile, and their absorption spectra were measured using a solar photometer U-3010 to determine the values of λmax and α (molar extinction coefficient) for absorption in a range of 300 nm to 400 nm as well as the value of E at 365 nm. In addition, their solubility to propylene glycol monomethyl ether acetate at 25° C. was evaluated. As for the solubility, the concentration of each compound was increased by 1%-by-mass increments, and the concentration at which no compound was left undissolved was determined to indicate the solubility in terms of this concentration.

Data set [2] is described as follows: Acid generation rate (photodegradation rate by HPLC after 365 nm UV irradiation). As to conditions: 365 nm UV 100 mW/cm^2, 1.5×10^−4 mol/L in acetonitrile/water=9/1. As to the method:
For each of the sulfonic acid derivative compound of Compound No. 4 and Comparative Compound 1, a 1.5×10^−4 mol/L acetonitrile/water mixed solution (volume ratio: acetonitrile/water=9/1) was prepared, and exactly 5.0 mL of the mixed solution was placed in a Petri dish having an inner diameter of 42 mm. Using a UV lamp and a cut filter transmitting only light having a wavelength of about 365 nm, which are manufactured by Hoya Candeo Optronics Corporation, the mixed solution was irradiated with UV having an intensity of 100 mW/cm^2. The irradiation was performed for 0.5 seconds, 1 second and 3 seconds for each solution. After this exposure, the photodegradation rate (%) was determined by HPLC as the acid generation rate.

The nature of data set [3]: UV absorption spectrum in acetonitrile. Conditions: for Maximum absorption wavelength (nm): absorption in a range of 300 nm to 400 nm; for Molar extinction coefficient ϵ (at maximum absorption wavelength): at λmax in 300 nm to 400 nm. The method, then: as §1
A short description of data set [4]: Transmittance at 365 nm. As to conditions: in acetonitrile. The method, then: The sulfonic acid derivative compound of Compound No. 4 and Comparative Compound 2 represented by the formula below were each dissolved in acetonitrile, and their absorption spectra were measured using a solar photometer U-3010 to determine the transmittance at 365 nm.

Consider `O=C1c2cccc3cccc(c23)C(=O)N1OS(=O)(=O)C(F)(F)F` [Comparative Compound 1], for which, in data set [1], the “Solubility (% by mass)” value turned out to be 1.9 % by mass. Also, the entries for the “Photodegradation rate (%)” value in data set [2] (0.5 seconds), in data set [2] (1 second) and in data set [2] (3 seconds) were 21.4%, 36.9% and 68.4%, respectively. Moreover, the “Molar extinction coefficient, ϵ, at 365 nm” value in data set [3] is listed as 0.7 × 10^3. Besides, the “Maximum absorption wavelength (nm)” value in data set [3] was 336.0 nm. Also, the “Molar extinction coefficient ϵ (at maximum absorption wavelength)” value in data set [3] is on record as 1.42 × 10^4.

In the case of `CCCCc1cc2c3c(cccc3c1)C(=O)N(OS(=O)(=O)C(F)(F)F)C2=O` [Compound No. 4], the “Solubility (% by mass)” value in data set [1] stood at 20 % by mass. Besides, the “Transmittance at 365 nm (%)” value in data set [4] was 34.1%. The “Photodegradation rate (%)” value in data set [2] (0.5 seconds) was 62.0%. Also, in data set [2] (1 second), the “Photodegradation rate (%)” value is recorded as 86.7%. The “Photodegradation rate (%)” value in data set [2] (3 seconds) was determined as 100%. In data set [3], the “Molar extinction coefficient, ϵ, at 365 nm” value is on record as 5.40 × 10^3; the “Maximum absorption wavelength (nm)” value amounted to 339.5 nm; the “Molar extinction coefficient ϵ (at maximum absorption wavelength)” value was 1.31 × 10^4.

Regarding `CCCCc1ccc2c3c(cccc13)C(=O)N(OS(=O)(=O)C(F)(F)F)C2=O` [Comparative Compound 2], in data set [4], the “Transmittance at 365 nm (%)” value was found to be 1.1%.
